No end group written: not given here.
Assays:
[1] = tested on: human monocytic THP-1 cells; experiment: Lactate dehydrogenase (LDH) assay; assay type: cell-based; settings: at 50 μM
Method: The cytotoxicity experiments were performed as described previously (41). Briefly, human monocytic THP-1 cells (American Type Culture Collection (ATCC), Manassas, VA) were cultured into 96-well plates using Dulbecco's Modified Eagle's medium (DMEM) (PAA Laboratories) supplemented with 10% fetal calf serum. The medium was removed and the cells were subsequently washed with DMEM. Peptides (1, 5, 10, 20, 50 μM) diluted in DMEM were added in triplicates. The LDH based TOX-7 kit (Sigma-Aldrich) was used according to the manufacturer instructions. The amount of LDH release from dead cells was measured at 450 nm. As a positive control 2% Triton X-100 was used.

P. aeruginosa 15159 = experiment: Invasive P. aeruginosa infection model, survival; assay type: in vivo, Female BALB/c mice
Method: Animal experiments were performed according to a protocol approved by the Local Ethics Committee at Lund University. Animals were housed under standard conditions of light and temperature and had free access to standard laboratory chow and water. P. aeruginosa 15159 bacteria were grown to mid-exponential phase (A620˜0.5), washed and diluted in PBS to 2×10^8 cfu/ml, and kept on ice until injection. Female BALB/c mice, 8 weeks old, were anesthetized with isoflurane and injected intraperitoneally with 100 μL of the bacterial solution, followed by injection of 100 μL SFV33 or GVR28 peptide (1 mg/mL) after 15 minutes, or with 100 μL PBS alone (control group).

[2] = tested on: S. pyogenes, S. aureus, E. coli and P. aeruginosa; experiment: Bactericidal assay (viable count), statements on the whole panel; assay type: cell-based; settings: salt conditions (150 mM NaCl, pH 7.4)
Method: Bacteria were grown to mid-logarithmic phase (OD620≈0.4) in THB medium at 37° C., with 5% CO2. The bacterial solution was subsequently washed and adjusted to 2×10^7 cfu/ml in salt buffer (10 mM Tris-HCl, 150 mM NaCl supplemented with 5 mM glucose; pH 7.4) (both from Sigma-Aldrich). Various concentrations of peptides (0.3, 0.6, 3, 6, 30 and 60 μM) were incubated with bacteria in salt buffer with or without 20% human plasma. Bacteria incubated in only salt buffer with or without plasma were used as negative controls. Samples with LL-37 served as positive controls. The samples were incubated for 2 h at 37° C. with 5% CO2. To quantify the bactericidal activity, serial dilutions of the incubation mixtures were plated on THB agar plates, followed by incubation at 37° C. with 5% CO2 overnight, and the number of cfu were determined. Experiments were performed in triplicate. Hundred percent survival was defined as total survival of bacteria in the same buffer and under the same condition in the absence of peptides.

[3] = tested on: RAW 264.7 macrophage cells; experiment: LPS stimulation of macrophages in vitro (nitrite, Griess reagent); assay type: cell-based, murine; settings: LPS 10 ng/ml pre-incubated with peptide, 24 h
Method: Murine macrophage-like cells (RAW 264.7; ATCC) were seeded in 96-well plates at 3.5×10^5 cells/well in DMEM (without phenol red, PAA Laboratories) supplemented with 10% fetal calf serum and antibiotic-antimycotic (Invitrogen, Carlsbad, CA). After overnight incubation at 37° C., the cells were washed once with DMEM. LPS (10 ng/ml) was pre-incubated with the peptides for 20 min at room temperature and added to the cells. The cells were subsequently incubated for 24 h at 37° C. Griess reagent (Sigma, St. Louis, MO) was added to culture supernatant in 1:1 ratio followed by 15 min incubation in dark. The absorbance was then measured at 550 nm with a spectrophotometer. The cells with and without LPS stimulation were taken as positive and negative controls for LPS-induction. For the determination of NO production with peptides and LPS treatments, the assay was done in triplicate and the average values were considered for each set. Cells were grown at 37° C. and with 5% CO2 in fully humidified air.

S. pyogenes = assay type: cell-based, Streptococcus pyogenes strain AP1; settings: positive control, 3 μM LL-37
Method: (§1) Viable count assay Bacteria were grown to mid-logarithmic phase (OD620≈ 0.4) in THB-medium at 37° C. with 5% CO2. The bacterial solution was subsequently washed and adjusted to 2×10^9 cfu/ml in 10 mM Tris, pH 7.4, containing 5 mM glucose. S. pyogenes, S. aureus, E. coli or P. aeruginosa were then incubated with 2 μM of purified collagen type VI at 37° C. for 2 h. In some experiments S. pyogenes was incubated with recombinant collagen type VI fragments at various concentrations (0.125, 0.25, 0.5, 1.0 and 2.0 μM) for 2 h at 37° C. Bacteria incubated with Tris-HCl pH 7.4 buffer or 3 μM LL-37 (Innovagen, Lund, Sweden) were used as negative and positive controls respectively. To quantify the bactericidal activity, serial dilutions of the incubation mixtures were plated on blood agar plates, followed by incubation at 37° C. overnight, and the number of colony forming units (cfu) were determined. Hundred percent survival was defined as total survival of bacteria in the same buffer and under the same condition in the absence of collagen type VI or recombinant proteins.

S. aureus = assay type: cell-based, Staphylococcus aureus strain 111; settings: positive control, 3 μM LL-37
Method: as §1

E. coli = assay type: cell-based, Escherichia coli strain 1351; settings: positive control, 3 μM LL-37
Method: as §1

P. aeruginosa = assay type: cell-based, Pseudomonas aeruginosa PAO1; settings: positive control, 3 μM LL-37
Method: as §1

[4] = Membrane permeabilization assay (carboxyfluorescein efflux from liposomes); settings: 10 mM Tris pH 7.4, 37° C., 45 min
Method: Dry lipid films of E. coli polar lipid extract were formed in round-bottom flask walls by dissolving lipids in chloroform, followed by evaporation under N2-flow and subsequently placed in vacuum overnight. Lipid films were re-suspended either by 30 min stirring (E. coli), at 55° C. in an aqueous solution of 100 mM 5(6)-carboxyfluorescein in 10 mM Tris (set to pH 7.4 at 37° C.). Suspensions were then vortexed followed by repeated extrusion through a 100 nm polycarbonate membrane mounted in a LipoFast mini-extruder (Avanti Polar Lipids) in order to reduce multilamellar structures and polydispersity. Un-trapped carboxyfluorescein was removed by gel filtration on Sephadex PD-10 columns (GE Healthcare, Little Chalfont, UK). Membrane permeability was measured by monitoring carboxyfluorescein efflux from the liposomes to the external low concentration environment, resulting in loss of self-quenching and an increased fluorescence signal with excitation and emission wavelengths of 492 and 517 nm, respectively. Fluorescence was measured with a Varioskan Flash Multimode Reader (Thermo Fisher Scientific, Waltham, MA) in black Nunc Delta Surface 96-well plate (Thermo Fisher Scientific, Roskilde, DK). […] The effects of each peptide concentration on the liposome systems were monitored for 45 min, at which point the initial leakage had largely subsided. […]

Compound: SFVARNTFKRVRNGFLMRKVAVFFSNTPTRASP [SFV33]
- toxicity towards monocytes (LDH release) [1]: exhibited toxicity

Compound: GVRPDGFAHIRDFVSRIVRRLNIGPSKV (GVR28 peptide) [peptide derived from VWA domain of collagen type VI α3-chain]
- survival compared with PBS group (P. aeruginosa 15159; experiment terminated after 29 hours): prolonged survival
- time at which 50% mortalities were observed (P. aeruginosa 15159; mice infected i.p., single dose 100 μL peptide (1 mg/mL) 15 minutes after infection): 24 h
- antibacterial activity (viable count) [2]: somewhat reduced effects
- LPS-induction of nitrite [3]: significantly suppressed the LPS-induction of nitrite

Compound: CC[C@H](C)[C@H](NC(=O)[C@H](CCCCN)NC(=O)[C@H](CCC(=O)O)NC(=O)[C@H](CCCCN)NC(=O)[C@H](CO)NC(=O)[C@H](CCCCN)NC(=O)[C@H](CCCNC(=N)N)NC(=O)[C@H](Cc1ccccc1)NC(=O)[C@H](Cc1ccccc1)NC(=O)[C@H](CC(=O)O)NC(=O)CNC(=O)[C@H](CC(C)C)NC(=O)[C@@H](N)CC(C)C)C(=O)NCC(=O)N[C@@H](CCCCN)C(=O)N[C@@H](CCC(=O)O)C(=O)N[C@@H](Cc1ccccc1)C(=O)N[C@@H](CCCCN)C(=O)N[C@@H](CCCNC(=N)N)C(=O)N[C@H](C(=O)N[C@H](C(=O)N[C@@H](CCC(N)=O)C(=O)N[C@@H](CCCNC(=N)N)C(=O)N[C@H](C(=O)N[C@@H](CCCCN)C(=O)N[C@@H](CC(=O)O)C(=O)N[C@@H](Cc1ccccc1)C(=O)N[C@@H](CC(C)C)C(=O)N[C@@H](CCCNC(=N)N)C(=O)N[C@@H](CC(N)=O)C(=O)N[C@@H](CC(C)C)C(=O)N[C@H](C(=O)N1CCC[C@H]1C(=O)N[C@@H](CCCNC(=N)N)C(=O)N[C@H](C(=O)N[C@@H](CCC(=O)O)C(=O)N[C@@H](CO)C(=O)O)[C@@H](C)O)C(C)C)[C@@H](C)CC)C(C)C)[C@@H](C)CC [LL-37]
- killing (S. pyogenes): ~100%
- killing (S. aureus): ~100%
- killing (E. coli): ~100%
- killing (P. aeruginosa): ~100%

Compound: FYLKTYRSQAPVLDAIRRLRLRGGS (FYL25 peptide) [peptide derived from VWA domain of collagen type VI α3-chain]
- membrane leakage (release of carboxyfluorescein) [4]: highest membrane leakage
